Like-named read-outs stand apart in the source and are kept apart here. Each block holds one compound with its values, some of them ahead of it.
Assays:
[1] = pH 5
Protocol: The percent of sumatriptan recovered, i.e., the experimentally determined amount (mg/mL) of sumatriptan divided by the theoretical amount present at each stage, is also provided.
The final stage of the excipient screen was used to establish a compatible preservative. […] Specifically, Stage II samples were removed and split into two tubes each containing 2.5 mL and the remaining solution kept as a control. […] These solutions were then stored at 50° C. for one month and periodically analyzed by HPLC.
The stability and solubility of sumatriptan compositions in acetate buffer with the preservative was also tested. These samples were mixed in a 1:1 ratio.

physchem = conditions: thermodynamic from solid
Protocol: By apparent solubility is meant the solubility of the sumatriptan determined visually. The materials used were sumatriptan succinate and various reagents for preparation of the buffers. Hydrochloric acid was used for preparation of the pH 2 buffer, acetate for preparation of the pH 5 buffer, phosphate for preparation of the pH 7 buffer, and carbonate for the pH 9 buffer. The concentration of the buffers was 0.1 M.
A 1 mL aliquot of each buffer was placed in a glass scintillation vial. To this volume was added a small amount of sumatriptan. Each amount of sumatriptan was weighed on a balance. Weights typically ranged from between 5 and 35 mg. After each new addition of sumatriptan, the vial was shaken and visually inspected to determine if all of the sumatriptan was in solution. When small particles of undissolved sumatriptan appeared, no further amount of sumatriptan was added. These amounts of sumatriptan added before the final addition was added together and were listed as the lower limit of each pH. The upper limit of solubility was taken to be the sum total of sumatriptan added to the buffer when undissolved sumatriptan appeared. […] The diamond symbol in FIG. 1 represents the average value between the lower and upper limit.

[2] = Stability of sumatriptan succinate in water and buffers of pH 2, 5, 7, 9 (HPLC); format: physicochemical; conditions: buffers with a pH of about 2 to 5, one month at 50° C. (additional studies not presented)
Protocol: After mixing thoroughly, a 1 mL aliquot was removed for high performance liquid chromatography (HPLC) analysis. The remaining volume was then split into a glass tube to be kept at room temperature, and another glass tube to be kept at 50° C. Samples were pulled periodically from the 50° C. tubes for one month and analyzed by HPLC.
As used herein, degradation in percent area by area is that amount of degradation that is the ratio of the sum total of degradation peaks divided by the response factor (sumatriptan's standard curve slope value) multiplied by 100, and not a quantified amount of degradation.

[3] = Characterization of unknown oxidation impurity (LC-MS, HPLC); format: physicochemical
Protocol: HPLC conditions were the same as that for impurity C and D analysis, and the product peaks were injected into an electrospray ionization mass spectrometer.
To confirm whether oxidation of sumatriptan would lead to the formation of this impurity, sumatriptan succinate was incubated with 25% H2O2 for 2 hours and 24 hours followed by LC-MS analysis.
To test the presence of this impurity in sumatriptan succinate procured from different vendors, solid sumatriptan in powder form as well as sumatriptan dissolved in water were analyzed by HPLC.

[4] = Formulation at different pH: impurities after two weeks at 50° C.; format: physicochemical; conditions: unbuffered (self-buffering)
Protocol: Sumatriptan succinate has a self-buffering capacity due to it being a succinic acid salt.
These formulations were kept on stability studies at 50° C. for two weeks.
Levels of each impurity are expressed as percentage (w/w) of sumatriptan, and RT is the retention time in minutes.

[5] = cited from earlier work

Percent Degradation After 1 month at 50° C. [1]: 14%
Compound: PEG 400

Percent Degradation After 1 month at 50° C. [1]: 0.64%
Compound: HPMC

solubility (physchem; aqueous buffer, apparent solubility): 100 to 115 mg/mL | solubility (physchem; pH 2, simulated gastric fluid, Apparent solubility, Lower Limit): 149 mg/mL | solubility (physchem; pH 2, simulated gastric fluid, Apparent solubility, Upper Limit): 162 mg/mL | solubility (physchem; pH 5, aqueous buffer, Apparent solubility, Lower Limit): 110 mg/mL | solubility (physchem; pH 5, aqueous buffer, Apparent solubility, Upper Limit): 120 mg/mL | solubility (physchem; pH 7, aqueous buffer, Apparent solubility, Lower Limit): 138 mg/mL | solubility (physchem; pH 7, aqueous buffer, Apparent solubility, Upper Limit): 151 mg/mL | solubility (physchem; pH 9, aqueous buffer, Apparent solubility, Lower Limit): 138 mg/mL | solubility (physchem; pH 9, aqueous buffer, Apparent solubility, Upper Limit): 140 mg/mL | degradation [2]: 1.5% | oxidation impurity (chromatogram) ([3]; 25% v/v H2O2 solution at room temperature for 2 hours): formation of the oxidation impurity | oxidation impurity (HPLC) ([3]; aqueous solution at 50° C. for two weeks): formed upon incubation | oxidation impurity (chromatogram) ([3]; solid powder at 4° C.): not present | oxidation impurity (chromatogram) ([3]; solid powder at 50° C.): not present | pH of solutions [4]: 4.5-5
Compound: CNS(=O)(=O)Cc1ccc2[nH]cc(CCN(C)C)c2c1.O=C(O)CCC(=O)O [Sumatriptan succinate, 3-[2-(dimethylamino)ethyl]-N-methyl-indole-5-methanesulfonamide succinate (1:1)]
bioavailability ([5]; 6 mg subcutaneous injection): 97% | bioavailability ([5]; 20 mg nasal spray): 17% | Tmax ([5]; 50 mg tablet): 2.5 h | elimination half-life ([5]; in vivo): about 2 hours | Tmax ([5]; nasal spray): 1 h | absolute bioavailability ([5]; oral administration): about 14% | Tmax ([5]; subcutaneous injection): 0.2 h

Percent Degradation After 1 month at 50° C. [1]: 0.07%
Compound: Xanthan Gum

Percent Degradation After 1 month at 50° C. [1]: 0.49%
Compound: Tween ™ 80

Reference: patent publication US20070166336A1, “Stable and palatable oral liquid sumatriptan compositions” (priority 2005, published 2007)
